Data set [1] concerns the target DA D1 receptor (Rattus norvegicus, UniProt P18901). The data set is described as follows: biochemical. Format: binding. Particulars: IC50, D1 3H-SCH.
The target of a further data set is T1, 5-HT2 receptors (Rattus norvegicus, UniProt P14842).
T1 construct: 5-HT2 receptors in membranes from rat cortex; from tissue; host or cells: membranes from rat cortex
The experiment in a line: Inhibition of 3H-ketanserin binding to 5-HT2 receptors in membranes from rat cortex. Particulars: Receptor Binding, IC50, 5-HT2 3H-Ket. Here is the method: Receptor binding studies.
5-HT2 receptors. Inhibition of ^3 H-ketanserin binding to 5-HT2 receptors in membranes from rat cortex was determined as described by Hyttel, J. Acta. Pharmacol. Toxicol.

Another data set has as its target T2, DA D2 receptors (Rattus norvegicus, UniProt P61169).
T2 construct: DA D2 receptors in rat striatal membranes; from tissue; host or cells: rat striatal membranes
The data set is described as follows: Inhibition of 3H-spiperone binding to DA D2 receptors in rat striatal membranes. Conditions: IC50, D2 3H-Spi.

The test system of another data set is DA uptake. The experiment in a line: Inhibition of DA uptake in vitro. Format: biochemical. The protocol:
Inhibition of DA Uptake in Vitro was determined as described by K. P. B.o slashed.ges.o slashed., J. Med. Chem. 1983, 26, 935-947.

Data set [2] concerns DA D1 receptor. Particulars: 3H-piflutixol; D2 by 3H-spiperone; Drug. Dev. Res. 1986, 7, 35-47; cited from earlier work.
The next data set deals with D1. Particulars: 3H-SCH 23390; Drug. Dev. Res. 1988, 15, 389-404; cited from earlier work.
The conditions of data set [3]: cited from earlier work; for extrapyramidal side effects (in words): at higher D2 occupancies needed to control psychosis.
For data set [4] the following is noted: Psychopharmacology 1985, 86, 303-305; cited from earlier work.
Another data set deals with 5-HT2. Particulars: cited from earlier work.
Setting [5] is: rat striatal membranes, 3H-spiperone, read-out: Receptor Binding.
Setting [6] is: rat striatal membranes, 3H-SCH 23390, read-out: Receptor Binding.

We go through 23 molecules from patent publication US5807855A, “1-piperazino-1,2-dihydroindene derivatives” (priority 1992, dated 1998).

SMILES strings stand for the structures. pIC50: −log10 of the molar value. “Also recorded” adds a separate entry of the source. Where two headings read alike, the source gives them in different places.

Chain of DA D1 receptor (Rattus norvegicus, UniProt P18901) (P18901 whole entry): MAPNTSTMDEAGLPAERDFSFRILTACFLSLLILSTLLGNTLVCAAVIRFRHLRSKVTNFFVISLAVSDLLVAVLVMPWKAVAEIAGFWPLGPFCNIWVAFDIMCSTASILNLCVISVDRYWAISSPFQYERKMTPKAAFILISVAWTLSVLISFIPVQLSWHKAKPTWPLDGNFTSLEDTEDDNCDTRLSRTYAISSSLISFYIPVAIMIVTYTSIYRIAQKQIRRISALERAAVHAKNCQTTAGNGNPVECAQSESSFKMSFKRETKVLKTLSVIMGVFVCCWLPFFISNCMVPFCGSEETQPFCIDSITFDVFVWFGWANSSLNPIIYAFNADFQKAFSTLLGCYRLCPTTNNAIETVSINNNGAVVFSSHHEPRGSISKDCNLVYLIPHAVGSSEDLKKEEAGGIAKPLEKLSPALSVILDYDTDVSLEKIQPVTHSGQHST
T2 sequence (P61169 whole entry): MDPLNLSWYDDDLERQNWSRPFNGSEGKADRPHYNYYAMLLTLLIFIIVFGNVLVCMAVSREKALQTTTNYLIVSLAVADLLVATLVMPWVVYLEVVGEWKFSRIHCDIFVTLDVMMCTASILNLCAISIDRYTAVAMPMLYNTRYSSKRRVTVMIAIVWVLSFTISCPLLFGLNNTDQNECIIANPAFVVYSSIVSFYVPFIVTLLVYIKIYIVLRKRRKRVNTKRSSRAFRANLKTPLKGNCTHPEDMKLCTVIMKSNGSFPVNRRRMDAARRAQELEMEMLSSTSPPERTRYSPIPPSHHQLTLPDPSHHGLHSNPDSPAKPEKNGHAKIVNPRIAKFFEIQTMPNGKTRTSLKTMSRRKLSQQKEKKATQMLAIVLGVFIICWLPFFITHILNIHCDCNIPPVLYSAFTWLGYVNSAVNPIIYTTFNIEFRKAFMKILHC
T1 sequence (P14842 whole entry): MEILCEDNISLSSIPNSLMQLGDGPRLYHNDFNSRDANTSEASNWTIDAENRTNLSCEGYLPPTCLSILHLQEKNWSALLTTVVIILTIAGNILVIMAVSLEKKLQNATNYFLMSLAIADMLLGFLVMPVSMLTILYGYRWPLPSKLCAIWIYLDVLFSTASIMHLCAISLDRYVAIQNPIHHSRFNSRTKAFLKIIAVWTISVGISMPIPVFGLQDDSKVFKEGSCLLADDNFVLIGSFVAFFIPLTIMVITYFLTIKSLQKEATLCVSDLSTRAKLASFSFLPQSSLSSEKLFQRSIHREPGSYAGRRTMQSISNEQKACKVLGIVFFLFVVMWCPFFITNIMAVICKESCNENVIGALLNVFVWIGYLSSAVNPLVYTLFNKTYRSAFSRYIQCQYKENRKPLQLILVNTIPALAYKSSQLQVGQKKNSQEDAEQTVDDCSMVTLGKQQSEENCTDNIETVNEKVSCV

Consider `CN1CCN([C@@H]2C[C@@H](c3ccc(F)cc3)c3ccc(Br)cc32)CC1(C)C` (racemic) [Compound 8, (±)-Trans-4-[6-bromo-3-(4-fluorophenyl)-2,3-dihydro-1H-inden-1-yl]-1,2,2-trimethylpiperazine], for which the pIC50 at DA D1 receptor [1] (Receptor Binding) was 8.74; at 5-HT2 receptors it was 8.52; at DA D2 receptors (setting [5]) it was 8.07.

Turning to `CN1CCN([C@@H]2C[C@@H](c3ccc(F)cc3)c3cc(Cl)c(Cl)cc32)CC1(C)C` (racemic) [Compound 9, (±)-Trans-4-[5,6-dichloro-3-(4-fluorophenyl)-2,3-dihydro-1H-inden-1-yl]-1,2,2-trimethylpiperazine], the results for the pIC50 at DA D1 receptor [1] (setting [6]), at 5-HT2 receptors and at DA D2 receptors (setting [5]) were 7.74, 8.23 and 7.36, respectively.

Turning to `CN1CCN([C@@H]2C[C@@H](c3ccccc3)c3ccc(Cl)cc32)CC1(C)C` (racemic) [Compound 10, (±)-Trans-4-[6-chloro-3-phenyl-2,3-dihydro-1H-inden-1-yl]-1,2,2-trimethylpiperazine], the pIC50 is 7.82 with DA uptake, 8.80 on DA D1 receptor [1] (setting [6]), 8.49 at 5-HT2 receptors and 7.70 on DA D2 receptors (Receptor Binding).

As for `CN1CCN([C@@H]2C[C@@H](c3ccccc3F)c3ccc(Cl)cc32)CC1(C)C` (racemic) [Compound 11, (±)-Trans-4-[6-chloro-3-(2-fluorophenyl)-2,3-dihydro-1H-inden-1-yl]-1,2,2-trimethylpiperazine], the pIC50 was 8.36 on DA D1 receptor [1] (Receptor Binding), 7.68 at 5-HT2 receptors and 7.44 at DA D2 receptors (setting [5]).

With `CN1CCN([C@@H]2C[C@@H](c3cccc(F)c3)c3ccc(Cl)cc32)CC1(C)C` (racemic) [Compound 12, (±)-Trans-4-[6-chloro-3-(3-fluorophenyl)-2,3-dihydro-1H-inden-1-yl]-1,2,2-trimethylpiperazine], the pIC50 at DA D1 receptor [1] (Receptor Binding) was 8.02; at 5-HT2 receptors it was 7.59; at DA D2 receptors (setting [5]) it was 6.55.

With `CC1(C)CN([C@@H]2C[C@@H](c3ccsc3)c3ccc(Cl)cc32)CCN1` (racemic) [Compound 13, (±)-Trans-4-[6-chloro-3-(3-thienyl)-2,3-dihydro-1H-inden-1-yl]-2,2-dimethylpiperazine], the pIC50 at DA D1 receptor [1] (Receptor Binding) was 8.85; on 5-HT2 receptors, 9.00; at DA D2 receptors (setting [5]), 8.09.

`CN1CCN([C@@H]2C[C@@H](c3ccsc3)c3ccc(Cl)cc32)CC1(C)C` (racemic) [Compound 14, (±)-Trans-4-[6-chloro-3-(3-thienyl)-2,3-dihydro-1H-inden-1-yl]-1,2,2-trimethylpiperazine]: the pIC50 is 9.12 on DA D1 receptor [1] (Receptor Binding), 8.77 on 5-HT2 receptors and 8.21 at DA D2 receptors (setting [5]).

For the molecule `CN1CCN([C@@H]2C[C@@H](c3ccc(F)cc3)c3cc(Cl)ccc32)CC1(C)C` (racemic) [Compound 16, (±)-Trans-4-[5-chloro-3-(4-fluorophenyl)-2,3-dihydro-1H-inden-1-yl]-1,2,2-trimethylpiperazine], the pIC50 at DA D1 receptor [1] (Receptor Binding) was 7.43; at 5-HT2 receptors, 8.03; on DA D2 receptors (setting [5]), 6.47.

As to `CN1CCN([C@@H]2C[C@@H](c3ccc(F)cc3)c3cccc(Cl)c32)CC1(C)C` (racemic) [Compound 17, (±)-Trans-4-[7-chloro-3-(4-fluorophenyl)-2,3-dihydro-1H-inden-1-yl]-1,2,2-trimethylpiperazine], the pIC50 is 7.49 on DA D1 receptor [1] (Receptor Binding), 7.51 on 5-HT2 receptors and 5.92 on DA D2 receptors (setting [5]).

Turning to `CCC1(CC)CN([C@@H]2C[C@@H](c3ccc(F)cc3)c3ccc(Cl)cc32)CCN1` (racemic) [Compound 23, (±)-Trans-4-[6-chloro-3-(4-fluorophenyl)-2,3-dihydro-1H-inden-1-yl]-2,2-diethylpiperazine], the pIC50 was 8.33 at DA D1 receptor [1] (setting [6]), 7.96 at 5-HT2 receptors and 7.44 on DA D2 receptors (setting [5]).

Regarding `Fc1ccc([C@@H]2C[C@@H](N3CCNC4(CCCCC4)C3)c3cc(Cl)ccc32)cc1` (racemic) [Compound 31, (±)-Trans-4-[6-chloro-3-(4-fluorophenyl)-2,3-dihydro-1H-inden-1-yl]-1,4-diazaspiro[5.5]undecan], the values for the pIC50 at DA D1 receptor [1] (setting [6]), at 5-HT2 receptors and on DA D2 receptors (setting [5]) were 8.19, 7.60 and 7.12, respectively.

For the molecule `CN1CCN([C@@H]2C[C@@H](c3ccc(F)cc3)c3cccc(F)c32)CC1(C)C` (racemic) [Compound 36, (±)-Trans-4-[7-fluoro-3-(4-fluorophenyl)-2,3-dihydro-1H-inden-1-yl]-1,2,2-trimethyl piperazine], the pIC50 on DA D1 receptor [1] (Receptor Binding) was 8.42; on 5-HT2 receptors it was 8.01; at DA D2 receptors (setting [5]) it was 7.13.

`CC1(C)CN([C@@H]2C[C@@H](c3ccc(F)cc3)c3ccc(Cl)cc32)CCN1CCCO` (racemic) [Compound 39, (±)-Trans-4-[6-chloro-3-(4-fluorophenyl)-2,3-dihydro-1H-inden-1-yl]-2,2-dimethyl-1-piperazinepropanol]: the pIC50 at DA D1 receptor [1] (setting [6]) is 8.74; on 5-HT2 receptors it was 8.52; at DA D2 receptors (setting [5]) it was 8.01.

For the molecule `OCCN1CCN([C@@H]2C[C@@H](c3ccc(F)cc3)c3ccc(C(F)(F)F)cc32)CC1` (racemic) [Tefludazine], the “DA D1 receptor affinity (in words)” value in the data set with DA D1 receptor [2] is on record as “substantially lower than the D2 affinity”.

Regarding `CC(C)C1CN([C@@H]2C[C@@H](c3ccc(F)cc3)c3ccc(Cl)cc32)CCN1` (relative stereo) [Compound 19, Trans-4-[6-chloro-3-(4-fluorophenyl)-2,3-dihydro-1H-inden-1-yl]-2-(2-propyl)piperazine], the pIC50 on DA D1 receptor [1] (setting [6]) is 8.66; at 5-HT2 receptors, 8.25; at DA D2 receptors (setting [5]), 7.42.

On to `CC(C)C1CN([C@@H]2C[C@@H](c3ccc(F)cc3)c3ccc(Cl)cc32)CCN1` (relative stereo) [Compound 20, Trans-4-[6-chloro-3-(4-fluorophenyl)-2,3-dihydro-1H-inden-1-yl]-2-(2-propyl)piperazine], for which the pIC50 at DA D1 receptor [1] (setting [6]) was 8.22; at 5-HT2 receptors, 8.06; at DA D2 receptors (setting [5]), 6.89.

`CN1CCN([C@@H]2C[C@@H](c3ccc(F)cc3)c3ccc(Cl)cc32)CC1(C)C` (single isomer, unassigned) [+2, (+) Trans-4-[6-chloro-3-(4-fluorophenyl)-2,3-dihydro-1H-inden-1-yl]-1,2,2-trimethylpiperazine]: the figures for the pIC50 in the data set with DA uptake and at 5-HT2 receptors were 7.80 and 5.70, respectively.

On to `Fc1ccc(C2CC(N3CCN4CCCCC4C3)c3cc(F)ccc32)cc1` (stereo not drawn) [Compound 33, 2-[6-fluoro-3-(4-fluorophenyl)-2,3-dihydro-1H-inden-1-yl]-octahydropyrido[1,2-a]-pyrazine], for which the pIC50 at DA D1 receptor [1] (setting [6]) is 8.24; on 5-HT2 receptors it was 7.55; at DA D2 receptors (setting [5]), 6.49.

Turning to `O=C1NCCN1CCN1CCN([C@@H]2C[C@@H](c3ccc(F)cc3)c3ccccc32)CC1` [Irindalone, reference compound], the “D1 affinity (in words)” value in the data set on D1 was “even lower than the D2 affinity”. In addition, the pIC50 on DA D1 receptor [1] (read-out: Receptor Binding) was 6.05.

As to `O=C(CCCN1CCC(O)(c2ccc(Cl)cc2)CC1)c1ccc(F)cc1` [haloperidol], the “extrapyramidal side effects (in words)” value in [3] is on record as “accompanied by extrapyramidal side effects”.

On to `OCCN1CCN(CCCN2c3ccccc3Sc3ccc(Cl)cc32)CC1` [perphenazine], for which, in data set [3], the “extrapyramidal side effects (in words)” value is “accompanied by extrapyramidal side effects”.

As to `Cc1nc2sccn2c(=O)c1CCN1CCC(=C(c2ccc(F)cc2)c2ccc(F)cc2)CC1` [ritanserin], the “effect in animal test (in words)” value in data set [4] is on record as “exert effects in an animal test reminiscent of anxiolytic activity”. Moreover, the “clinical effect (in words)” value in [3] (patients) is “shown to be an antidepressant and to improve depressive symptoms of schizophrenia; also recorded: improve the quality of sleep; also recorded: found to relieve neuroleptic-induced parkinsonism”. Also, the “5-HT2 antagonism (in words)” value in the data set with 5-HT2 was “selective 5-HT2 antagonist”.

For `Cc1nc2n(c(=O)c1CCN1CCC(C(=O)c3ccc(F)cc3)CC1)CCS2` [setoperone], the “5-HT2 antagonism (in words)” value in the data set on 5-HT2 was 5-HT2 and moderate dopamine receptor antagonist.
